Reference: the NIST ThermoML archive (doi:10.1016/j.jct.2016.09.026)
Numbers after ± are expanded uncertainties.

How the values were obtained:
[1] = molar heat capacity at constant pressure; conditions: 101.33 kPa, Small sample (50 mg) DSC
[2] = Crystal
[3] = Molar enthalpy of transition or fusion; conditions: Crystal; DSC

CCCCC(=O)c1ccc(O)cc1 [1-(4-hydroxyphenyl)-1-pentanone]
molar heat capacity at constant pressure ([1]; 317.19 K, Crystal): 257.2 ± 11 J/K/mol | molar heat capacity at constant pressure ([1]; 317.44 K, Crystal): 257.6 ± 11 J/K/mol | molar heat capacity at constant pressure ([1]; 317.69 K, Crystal): 257.8 ± 11 J/K/mol | molar heat capacity at constant pressure ([1]; 317.94 K, Crystal): 257.4 ± 11 J/K/mol | molar heat capacity at constant pressure ([1]; 318.19 K, Crystal): 257 ± 11 J/K/mol | molar heat capacity at constant pressure ([1]; 318.44 K, Crystal): 258.3 ± 11 J/K/mol | molar heat capacity at constant pressure ([1]; 318.69 K, Crystal): 258.9 ± 11 J/K/mol | molar heat capacity at constant pressure ([1]; 318.94 K, Crystal): 259.1 ± 11 J/K/mol | molar heat capacity at constant pressure ([1]; 319.19 K, Crystal): 260.1 ± 11 J/K/mol | molar heat capacity at constant pressure ([1]; 319.44 K, Crystal): 259.4 ± 12 J/K/mol | molar heat capacity at constant pressure ([1]; 319.69 K, Crystal): 260.1 ± 12 J/K/mol | molar heat capacity at constant pressure ([1]; 319.94 K, Crystal): 259.7 ± 12 J/K/mol | molar heat capacity at constant pressure ([1]; 320.19 K, Crystal): 259.7 ± 12 J/K/mol | molar heat capacity at constant pressure ([1]; 320.44 K, Crystal): 260.3 ± 12 J/K/mol | molar heat capacity at constant pressure ([1]; 320.69 K, Crystal): 260.6 ± 12 J/K/mol | molar heat capacity at constant pressure ([1]; 320.94 K, Crystal): 261.2 ± 12 J/K/mol | molar heat capacity at constant pressure ([1]; 321.19 K, Crystal): 261.4 ± 12 J/K/mol | molar heat capacity at constant pressure ([1]; 321.44 K, Crystal): 260.7 ± 12 J/K/mol | molar heat capacity at constant pressure ([1]; 321.69 K, Crystal): 260.9 ± 12 J/K/mol | molar heat capacity at constant pressure ([1]; 321.94 K, Crystal): 260.9 ± 12 J/K/mol | molar heat capacity at constant pressure ([1]; 322.19 K, Crystal): 261.4 ± 12 J/K/mol | molar heat capacity at constant pressure ([1]; 322.44 K, Crystal): 262.1 ± 13 J/K/mol | molar heat capacity at constant pressure ([1]; 322.69 K, Crystal): 262.7 ± 13 J/K/mol | molar heat capacity at constant pressure ([1]; 322.94 K, Crystal): 262.6 ± 13 J/K/mol | molar heat capacity at constant pressure ([1]; 323.19 K, Crystal): 263.3 ± 12 J/K/mol | molar heat capacity at constant pressure ([1]; 323.44 K, Crystal): 263.3 ± 12 J/K/mol | molar heat capacity at constant pressure ([1]; 323.69 K, Crystal): 262.8 ± 12 J/K/mol | molar heat capacity at constant pressure ([1]; 323.94 K, Crystal): 263 ± 12 J/K/mol | molar heat capacity at constant pressure ([1]; 324.19 K, Crystal): 264.1 ± 13 J/K/mol | molar heat capacity at constant pressure ([1]; 324.44 K, Crystal): 264.2 ± 13 J/K/mol | molar heat capacity at constant pressure ([1]; 324.69 K, Crystal): 264.3 ± 12 J/K/mol | molar heat capacity at constant pressure ([1]; 324.94 K, Crystal): 265.1 ± 13 J/K/mol | molar heat capacity at constant pressure ([1]; 325.19 K, Crystal): 265.2 ± 12 J/K/mol | molar heat capacity at constant pressure ([1]; 325.44 K, Crystal): 265.1 ± 12 J/K/mol | molar heat capacity at constant pressure ([1]; 325.69 K, Crystal): 265.8 ± 13 J/K/mol | molar heat capacity at constant pressure ([1]; 325.94 K, Crystal): 266.1 ± 13 J/K/mol | molar heat capacity at constant pressure ([1]; 326.19 K, Crystal): 266.1 ± 13 J/K/mol | molar heat capacity at constant pressure ([1]; 326.44 K, Crystal): 267.6 ± 13 J/K/mol | molar heat capacity at constant pressure ([1]; 326.69 K, Crystal): 267.8 ± 14 J/K/mol | molar heat capacity at constant pressure ([1]; 326.94 K, Crystal): 267.5 ± 14 J/K/mol | molar heat capacity at constant pressure ([1]; 327.19 K, Crystal): 267.3 ± 13 J/K/mol | molar heat capacity at constant pressure ([1]; 327.44 K, Crystal): 267.7 ± 13 J/K/mol | molar heat capacity at constant pressure ([1]; 327.69 K, Crystal): 268.3 ± 14 J/K/mol | molar heat capacity at constant pressure ([1]; 327.94 K, Crystal): 268.4 ± 14 J/K/mol | molar heat capacity at constant pressure ([1]; 328.19 K, Crystal): 268.9 ± 14 J/K/mol | molar heat capacity at constant pressure ([1]; 328.44 K, Crystal): 269.8 ± 14 J/K/mol | molar heat capacity at constant pressure ([1]; 328.69 K, Crystal): 269.8 ± 14 J/K/mol | molar heat capacity at constant pressure ([1]; 328.94 K, Crystal): 270.3 ± 14 J/K/mol | molar heat capacity at constant pressure ([1]; 329.19 K, Crystal): 270.3 ± 14 J/K/mol | molar heat capacity at constant pressure ([1]; 329.44 K, Crystal): 272 ± 14 J/K/mol | molar heat capacity at constant pressure ([1]; 329.69 K, Crystal): 273.2 ± 14 J/K/mol | molar heat capacity at constant pressure ([1]; 329.94 K, Crystal): 272.8 ± 14 J/K/mol | molar heat capacity at constant pressure ([1]; 330.19 K, Crystal): 273.6 ± 15 J/K/mol | molar heat capacity at constant pressure ([1]; 330.44 K, Crystal): 273.2 ± 14 J/K/mol | molar heat capacity at constant pressure ([1]; 330.69 K, Crystal): 275.7 ± 14 J/K/mol | molar heat capacity at constant pressure ([1]; 330.94 K, Crystal): 275.7 ± 14 J/K/mol | molar heat capacity at constant pressure ([1]; 331.19 K, Crystal): 277.6 ± 14 J/K/mol | molar heat capacity at constant pressure ([1]; 331.44 K, Crystal): 277.9 ± 15 J/K/mol | molar heat capacity at constant pressure ([1]; 331.69 K, Crystal): 278.6 ± 15 J/K/mol | molar heat capacity at constant pressure ([1]; 331.94 K, Crystal): 280.4 ± 15 J/K/mol | molar heat capacity at constant pressure ([1]; 332.19 K, Crystal): 281.8 ± 16 J/K/mol | molar heat capacity at constant pressure ([1]; 332.44 K, Crystal): 283.8 ± 16 J/K/mol | molar heat capacity at constant pressure ([1]; 332.69 K, Crystal): 285.5 ± 16 J/K/mol | molar heat capacity at constant pressure ([1]; 332.94 K, Crystal): 287.6 ± 16 J/K/mol | molar heat capacity at constant pressure ([1]; 333.19 K, Crystal): 291.7 ± 17 J/K/mol | molar heat capacity at constant pressure ([1]; 333.44 K, Crystal): 295.7 ± 18 J/K/mol | molar heat capacity at constant pressure ([1]; 340.69 K, Liquid): 393.2 ± 31 J/K/mol | molar heat capacity at constant pressure ([1]; 340.94 K, Liquid): 373.9 ± 15 J/K/mol | molar heat capacity at constant pressure ([1]; 341.19 K, Liquid): 368.2 ± 16 J/K/mol | molar heat capacity at constant pressure ([1]; 341.44 K, Liquid): 365.9 ± 15 J/K/mol | molar heat capacity at constant pressure ([1]; 341.69 K, Liquid): 367 ± 15 J/K/mol | molar heat capacity at constant pressure ([1]; 341.94 K, Liquid): 367.1 ± 16 J/K/mol | molar heat capacity at constant pressure ([1]; 342.19 K, Liquid): 366.1 ± 15 J/K/mol | molar heat capacity at constant pressure ([1]; 342.44 K, Liquid): 366.4 ± 16 J/K/mol | molar heat capacity at constant pressure ([1]; 342.69 K, Liquid): 368.5 ± 16 J/K/mol | molar heat capacity at constant pressure ([1]; 342.94 K, Liquid): 384.8 ± 17 J/K/mol | molar heat capacity at constant pressure ([1]; 343.19 K, Liquid): 386 ± 18 J/K/mol | molar heat capacity at constant pressure ([1]; 343.44 K, Liquid): 368.7 ± 16 J/K/mol | molar heat capacity at constant pressure ([1]; 343.69 K, Liquid): 364.2 ± 20 J/K/mol | molar heat capacity at constant pressure ([1]; 343.94 K, Liquid): 364.3 ± 21 J/K/mol | molar heat capacity at constant pressure ([1]; 344.19 K, Liquid): 364.4 ± 20 J/K/mol | molar heat capacity at constant pressure ([1]; 344.44 K, Liquid): 365 ± 20 J/K/mol | molar heat capacity at constant pressure ([1]; 344.69 K, Liquid): 366.8 ± 18 J/K/mol | molar heat capacity at constant pressure ([1]; 344.94 K, Liquid): 368.6 ± 18 J/K/mol | molar heat capacity at constant pressure ([1]; 345.19 K, Liquid): 369.5 ± 18 J/K/mol | molar heat capacity at constant pressure ([1]; 345.44 K, Liquid): 369.4 ± 17 J/K/mol | molar heat capacity at constant pressure ([1]; 345.69 K, Liquid): 370.7 ± 16 J/K/mol | molar heat capacity at constant pressure ([1]; 345.94 K, Liquid): 371 ± 16 J/K/mol | molar heat capacity at constant pressure ([1]; 346.19 K, Liquid): 371 ± 16 J/K/mol | molar heat capacity at constant pressure ([1]; 346.44 K, Liquid): 370.7 ± 16 J/K/mol | molar heat capacity at constant pressure ([1]; 346.69 K, Liquid): 371 ± 16 J/K/mol | molar heat capacity at constant pressure ([1]; 346.94 K, Liquid): 372.4 ± 16 J/K/mol | molar heat capacity at constant pressure ([1]; 347.19 K, Liquid): 373.1 ± 16 J/K/mol | molar heat capacity at constant pressure ([1]; 347.44 K, Liquid): 372.8 ± 16 J/K/mol | molar heat capacity at constant pressure ([1]; 347.69 K, Liquid): 373.7 ± 17 J/K/mol | molar heat capacity at constant pressure ([1]; 347.94 K, Liquid): 374 ± 17 J/K/mol | molar heat capacity at constant pressure ([1]; 348.19 K, Liquid): 373.1 ± 17 J/K/mol | molar heat capacity at constant pressure ([1]; 348.44 K, Liquid): 372.9 ± 17 J/K/mol | molar heat capacity at constant pressure ([1]; 348.69 K, Liquid): 371.8 ± 17 J/K/mol | molar heat capacity at constant pressure ([1]; 348.94 K, Liquid): 372 ± 17 J/K/mol | molar heat capacity at constant pressure ([1]; 349.19 K, Liquid): 373 ± 17 J/K/mol | molar heat capacity at constant pressure ([1]; 349.44 K, Liquid): 374.4 ± 17 J/K/mol | molar heat capacity at constant pressure ([1]; 349.69 K, Liquid): 374.8 ± 18 J/K/mol | molar heat capacity at constant pressure ([1]; 349.94 K, Liquid): 374 ± 18 J/K/mol | molar heat capacity at constant pressure ([1]; 350.19 K, Liquid): 374.1 ± 18 J/K/mol | molar heat capacity at constant pressure ([1]; 350.44 K, Liquid): 375.3 ± 17 J/K/mol | molar heat capacity at constant pressure ([1]; 350.69 K, Liquid): 374.9 ± 18 J/K/mol | molar heat capacity at constant pressure ([1]; 350.94 K, Liquid): 373.9 ± 18 J/K/mol | molar heat capacity at constant pressure ([1]; 351.19 K, Liquid): 375 ± 17 J/K/mol | molar heat capacity at constant pressure ([1]; 351.44 K, Liquid): 376.6 ± 18 J/K/mol | molar heat capacity at constant pressure ([1]; 351.68 K, Liquid): 375.6 ± 18 J/K/mol | molar heat capacity at constant pressure ([1]; 351.93 K, Liquid): 376.3 ± 18 J/K/mol | mass density ([2]; 298 K, 101.33 kPa, X-ray diffraction): 1204.5 ± 8 kg/m3 | Normal melting temperature ([2]; DTA): 61.1 ± 0.8 °C | Molar enthalpy of transition or fusion [3]: 25.8 ± 0.59 kJ/mol
